The values that follow come from ChEMBL document CHEMBL1142385, “Nitro as a novel zinc-binding group in the inhibition of carboxypeptidase A” (Bioorg Med Chem, 2008).

By Ki is commonly meant a measure of affinity in units of concentration, obtained from inhibition or displacement. A high value points to lower affinity.

SMILES strings stand for the structures.

The test has as its target T1, Carboxypeptidase A1 (Homo sapiens, UniProt P15085).
T1 sequence (P15085 whole entry): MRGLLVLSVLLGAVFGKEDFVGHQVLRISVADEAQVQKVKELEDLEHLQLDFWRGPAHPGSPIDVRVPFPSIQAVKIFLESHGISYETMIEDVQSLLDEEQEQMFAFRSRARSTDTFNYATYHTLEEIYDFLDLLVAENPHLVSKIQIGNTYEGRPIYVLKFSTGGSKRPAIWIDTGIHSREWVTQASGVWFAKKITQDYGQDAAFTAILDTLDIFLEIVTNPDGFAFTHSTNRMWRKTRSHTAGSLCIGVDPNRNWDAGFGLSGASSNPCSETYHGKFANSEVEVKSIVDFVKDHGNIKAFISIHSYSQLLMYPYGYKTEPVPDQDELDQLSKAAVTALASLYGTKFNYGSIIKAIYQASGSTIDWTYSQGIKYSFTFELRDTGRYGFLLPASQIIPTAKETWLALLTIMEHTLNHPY
Description: Inhibition of CPA.
`CC(C)CC(C[N+](=O)[O-])C(=O)O` (racemic) had a Ki of 2.08 µM.
`C=CCC(C[N+](=O)[O-])C(=O)O` (racemic) came in with an inhibition constant Ki of 62.6 µM.
In turn, `O=C(O)[C@@H](Cc1ccccc1)C[N+](=O)[O-]` came in with an inhibition constant Ki of 68 µM.
Next, `O=C(O)C[C@@H](Cc1ccccc1)C(=O)O`: 0.45 µM; `O=C(O)C(Cc1ccccc1)C[N+](=O)[O-]` (racemic): 0.79 µM.
